Test results reported in ChEMBL document CHEMBL1201862, “PubChem BioAssay data set” (2004).
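Five concentrations, 48 hours, 96-well plates. GI50 marks 50% less growth.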 Active and inactive are the calls of the source. No stated cut-off is given here; in the data, active = GI50 up to about 1.1 µM and inactive = higher.

Assays:
Assay in all cases: NCI tumour cell line growth inhibition, 48 h
[1] = test system: RXF 393
[2] = test system: DU-145
[3] = test system: Hs-578T
[4] = test system: ACHN
[5] = test system: A549
[6] = test system: MCF7
[7] = test system: MOLT-4
[8] = test system: IGROV-1
[9] = test system: RPMI-8226
[10] = test system: CCRF-CEM
[11] = test system: OVCAR-4
[12] = test system: OVCAR-8
[13] = test system: MDA-MB-435
[14] = test system: OVCAR-5
[15] = test system: M14
[16] = test system: HOP-62
[17] = test system: SF-268
[18] = test system: MDA-MB-231
[19] = test system: HL-60
[20] = test system: PC-3
[21] = test system: NCI-H522
[22] = test system: NCI-H226
[23] = test system: T47D
[24] = test system: NCI/ADR-RES
[25] = test system: K562
[26] = test system: HCT-15
[27] = test system: SW-620
[28] = test system: SK-MEL-5
[29] = test system: SNB-19
[30] = test system: KM12
[31] = test system: SNB-75
[32] = test system: 786-0
[33] = test system: HOP-92
[34] = test system: CAKI-1
[35] = test system: HCT-116
[36] = test system: NCI-H23
[37] = test system: UACC-62
[38] = test system: EKVX
[39] = test system: OVCAR-3
[40] = test system: HT-29
[41] = test system: LOX IMVI
[42] = test system: UACC-257
[43] = test system: COLO 205
[44] = test system: SF-295
[45] = test system: SK-OV-3
[46] = test system: Malme-3M
[47] = test system: UO-31
[48] = test system: SK-MEL-28
[49] = test system: SN12C
[50] = test system: SK-MEL-2
[51] = test system: SF-539
[52] = test system: NCI-H460
[53] = test system: TK-10
[54] = test system: U-251
[55] = test system: SR
[56] = test system: MDA-N
[57] = test system: HCC 2998
[58] = test system: A498

In the case of `N#CC(C#N)=C/C=C(\Sc1c(Cl)c(Cl)nc(Cl)c1Cl)c1ccc(Cl)cc1`, the GI50 [1] is reported as 18.5 µM (inactive), the GI50 [2] is reported as 21.1 µM (inactive) and the GI50 [3] is reported as 15.7 µM (inactive). The GI50 [4] was 16.8 µM (inactive), the GI50 [5] was > 100 µM (inactive) and the GI50 [6] was 31.1 µM (inactive). The GI50 [7] was 4.56 µM (inactive), the GI50 [8] was 18.7 µM (inactive) and the GI50 [9] was 4.1 µM (inactive). For the same compound, the GI50 [10] was 4.74 µM (inactive), the GI50 [11] was 29.9 µM (inactive) and the GI50 [12] was 5.05 µM (inactive). The GI50 [13] was 5.4 µM (inactive), the GI50 [14] was 21.5 µM (inactive) and the GI50 [15] was 19.5 µM (inactive). For the same compound, the GI50 [16] was 29.2 µM (inactive), the GI50 [17] was 19.6 µM (inactive) and the GI50 [18] was 21.6 µM (inactive). For the same compound, the GI50 [19] was 10.8 µM (inactive), the GI50 [20] was 30 µM (inactive) and the GI50 [21] was 18.8 µM (inactive). For the same compound, the GI50 [22] was 23 µM (inactive), the GI50 [23] was 31.6 µM (inactive) and the GI50 [24] was 12.8 µM (inactive). The GI50 [25] was 5.93 µM (inactive), the GI50 [26] was 12.9 µM and the GI50 [27] was 5.77 µM (inactive). The GI50 [28] was 13 µM (inactive), the GI50 [29] was 20.7 µM (inactive) and the GI50 [30] was 19.1 µM (inactive). The GI50 [31] was 20.1 µM (inactive), the GI50 [32] was 4.45 µM (inactive) and the GI50 [33] was 26.5 µM (inactive). The GI50 [34] was 14.5 µM (inactive), the GI50 [35] was 10.2 µM (inactive) and the GI50 [36] was 16.2 µM (inactive). For the same compound, the GI50 [37] was 14.3 µM (inactive), the GI50 [38] was 32.4 µM (inactive) and the GI50 [39] was 11.6 µM (inactive). The GI50 [40] was 18 µM (inactive), the GI50 [41] was 5.56 µM (inactive) and the GI50 [42] was 14.8 µM (inactive). The GI50 [43] was 24.4 µM (inactive), the GI50 [44] was 19 µM (inactive) and the GI50 [45] was 24.4 µM (inactive). The GI50 [46] was 23 µM (inactive), the GI50 [47] was 29.8 µM (inactive) and the GI50 [48] was 19.2 µM (inactive). The GI50 [49] was 20.8 µM (inactive), the GI50 [50] was 32.4 µM (inactive) and the GI50 [51] was 19.4 µM (inactive). For the same compound, the GI50 [52] was 26.4 µM (inactive), the GI50 [53] was 21.2 µM (inactive) and the GI50 [54] was 16.8 µM (inactive). The GI50 [55] was 3.75 µM (inactive).

With `C=CC1(c2ccc(OC)cc2)OCCCO1` the GI50 [1] was > 100 µM (inactive), the GI50 [2] was > 100 µM (inactive) and the GI50 [3] was > 100 µM (inactive). For the same compound, the GI50 [4] was > 100 µM (inactive), the GI50 [5] was > 100 µM (inactive) and the GI50 [6] was > 100 µM (inactive). The GI50 [7] was > 100 µM (inactive), the GI50 [8] was > 100 µM (inactive) and the GI50 [9] was > 100 µM (inactive). The GI50 [10] was > 100 µM (inactive), the GI50 [11] was > 100 µM (inactive) and the GI50 [12] was > 100 µM (inactive). The GI50 [13] was > 100 µM (inactive), the GI50 [14] was > 100 µM (inactive) and the GI50 [15] was > 100 µM (inactive). For the same compound, the GI50 [16] was > 100 µM (inactive), the GI50 [17] was > 100 µM (inactive) and the GI50 [18] was > 100 µM (inactive). For the same compound, the GI50 [19] was > 100 µM (inactive), the GI50 [56] was > 100 µM (inactive) and the GI50 [20] was > 100 µM (inactive). For the same compound, the GI50 [21] was > 100 µM (inactive), the GI50 [22] was > 100 µM (inactive) and the GI50 [23] was > 100 µM (inactive). For the same compound, the GI50 [24] was > 100 µM (inactive), the GI50 [25] was > 100 µM (inactive) and the GI50 [26] was greater than 100 µM. The GI50 [27] was > 100 µM (inactive), the GI50 [28] was > 100 µM (inactive) and the GI50 [29] was > 100 µM (inactive). For the same compound, the GI50 [30] was > 100 µM (inactive), the GI50 [31] was > 100 µM (inactive) and the GI50 [32] was > 100 µM (inactive). For the same compound, the GI50 [33] was > 100 µM (inactive), the GI50 [35] was > 100 µM (inactive) and the GI50 [36] was > 100 µM (inactive). For the same compound, the GI50 [37] was > 100 µM (inactive), the GI50 [38] was 15 µM (inactive) and the GI50 [39] was > 100 µM (inactive). The GI50 [40] was > 100 µM (inactive), the GI50 [41] was > 100 µM (inactive) and the GI50 [42] was > 100 µM (inactive). For the same compound, the GI50 [43] was > 100 µM (inactive), the GI50 [44] was > 100 µM (inactive) and the GI50 [45] was > 100 µM (inactive). The GI50 [46] was > 100 µM (inactive), the GI50 [47] was > 100 µM (inactive) and the GI50 [48] was > 100 µM (inactive). For the same compound, the GI50 [57] was > 100 µM (inactive), the GI50 [49] was > 100 µM (inactive) and the GI50 [50] was > 100 µM (inactive). The GI50 [51] was > 100 µM (inactive), the GI50 [52] was > 100 µM (inactive) and the GI50 [53] was > 100 µM (inactive). The GI50 [54] was > 100 µM (inactive) and the GI50 [55] was > 100 µM (inactive).

`NC1CC2C3CCC2C1C3=O` (stereo not drawn) was tested, and the GI50 [1] was > 100 µM (inactive), the GI50 [2] was > 100 µM (inactive) and the GI50 [3] was > 100 µM (inactive). For the same compound, the GI50 [4] was > 100 µM (inactive), the GI50 [58] was > 100 µM (inactive) and the GI50 [5] was > 100 µM (inactive). For the same compound, the GI50 [6] was > 100 µM (inactive), the GI50 [7] was > 100 µM (inactive) and the GI50 [8] was > 100 µM (inactive). For the same compound, the GI50 [10] was > 100 µM (inactive), the GI50 [11] was > 100 µM (inactive) and the GI50 [12] was > 100 µM (inactive). The GI50 [13] was > 100 µM (inactive), the GI50 [14] was > 100 µM (inactive) and the GI50 [15] was > 100 µM (inactive). For the same compound, the GI50 [16] was > 100 µM (inactive), the GI50 [17] was > 100 µM (inactive) and the GI50 [18] was > 100 µM (inactive). The GI50 [19] was > 100 µM (inactive), the GI50 [56] was > 100 µM (inactive) and the GI50 [20] was > 100 µM (inactive). The GI50 [21] was > 100 µM (inactive), the GI50 [22] was > 100 µM (inactive) and the GI50 [23] was > 100 µM (inactive). For the same compound, the GI50 [24] was > 100 µM (inactive), the GI50 [25] was > 100 µM (inactive) and the GI50 [26] was greater than 100 µM. The GI50 [27] was > 100 µM (inactive), the GI50 [28] was > 100 µM (inactive) and the GI50 [29] was > 100 µM (inactive). The GI50 [30] was > 100 µM (inactive), the GI50 [31] was 4.76 µM (inactive) and the GI50 [32] was > 100 µM (inactive). The GI50 [33] was > 100 µM (inactive), the GI50 [34] was > 100 µM (inactive) and the GI50 [35] was > 100 µM (inactive). The GI50 [36] was > 100 µM (inactive), the GI50 [37] was > 100 µM (inactive) and the GI50 [38] was > 100 µM (inactive). The GI50 [39] was > 100 µM (inactive), the GI50 [40] was > 100 µM (inactive) and the GI50 [41] was > 100 µM (inactive). The GI50 [42] was > 100 µM (inactive), the GI50 [43] was > 100 µM (inactive) and the GI50 [44] was > 100 µM (inactive). For the same compound, the GI50 [45] was > 100 µM (inactive), the GI50 [46] was > 100 µM (inactive) and the GI50 [47] was > 100 µM (inactive). The GI50 [48] was > 100 µM (inactive), the GI50 [57] was > 100 µM (inactive) and the GI50 [49] was > 100 µM (inactive). For the same compound, the GI50 [50] was > 100 µM (inactive), the GI50 [51] was > 100 µM (inactive) and the GI50 [52] was > 100 µM (inactive). For the same compound, the GI50 [53] was > 100 µM (inactive), the GI50 [54] was > 100 µM (inactive) and the GI50 [55] was > 100 µM (inactive).

With `CC1C(=O)C(C)C(c2ccccc2)N(C)C1c1ccccc1` (stereo not drawn) the GI50 [7] was 34.5 µM (inactive), the GI50 [14] was 63.8 µM (inactive) and the GI50 [19] was 39.8 µM (inactive). The GI50 [40] was 47.6 µM (inactive) and the GI50 [55] was 32.3 µM (inactive).
